Like-named read-outs stand apart in the source and are kept apart here. *1 amine or outer side, *2 acyl side, *3 side chain or, on linkers, in order; H or OH if unused. Where a SMILES comes first, the peptide text is derived from it. Side-chain parts run from the residue outwards. [ ]: non-standard residue; d: D form. The star is where a group is joined. Decanoyl(10-(4-HOOC-PhO)) = O=C(O)c1ccc(OCCCCCCCCCC(=O)*)cc1; αMePhe(2-F) = C[C@](N)(Cc1ccccc1F)C(=O)O; γGlu = O=C(O)[C@H](CCC(=O)[*:2])N[*:1]; αMeY = C[C@](N)(Cc1ccc(O)cc1)C(=O)O; 4Pal = N[C@@H](Cc1ccncc1)C(=O)O; αMeL = CC(C)C[C@](C)(N)C(=O)O; Orn = NCCC[C@H](N)C(=O)O; AEEA = NCCOCCOCC(=O)O; Aib = CC(C)(N)C(=O)O
Legend:
Type in all cases: cell-based
hGLP-1R = hGLP-1R (Homo sapiens, UniProt P43220); assay: Functional cAMP formation (HTRF) in HEK-293 clonal cells expressing hGLP-1R, 0.1% bovine casein, without or with 1.0% human serum albumin; set-up: expressed in transfected cells; settings: for Emax: percent of maximal response to GLP-1(7-36)NH2; for EC50: hGLP-1R EC50, nM (SEM, n), cAMP, 37° C.
hGLP-1R, sequence (P43220 24-463): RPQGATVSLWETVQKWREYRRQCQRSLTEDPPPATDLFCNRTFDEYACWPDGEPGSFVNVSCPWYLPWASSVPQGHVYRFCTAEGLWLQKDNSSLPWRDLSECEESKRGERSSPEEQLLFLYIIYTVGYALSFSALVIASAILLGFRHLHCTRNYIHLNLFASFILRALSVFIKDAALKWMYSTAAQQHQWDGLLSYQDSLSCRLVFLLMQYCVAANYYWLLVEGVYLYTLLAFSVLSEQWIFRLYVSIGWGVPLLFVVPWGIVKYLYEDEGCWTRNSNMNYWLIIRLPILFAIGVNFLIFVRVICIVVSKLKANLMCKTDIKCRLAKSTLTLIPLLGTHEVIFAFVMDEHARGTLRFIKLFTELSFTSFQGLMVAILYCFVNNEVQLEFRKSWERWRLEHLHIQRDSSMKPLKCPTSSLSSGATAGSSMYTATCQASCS
In short: (§1)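 Cells were stimulated with peptide for 30 min at 37° C, then intracellular cAMP was measured by competitive HTRF (665/620 nm ratio) and converted to nM using a cAMP standard curve. Relative EC50 and Emax came from four-parameter logistic fits of percent maximal response against peptide concentration.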

hGCGR = target: T1, hGCGR (Homo sapiens, UniProt P47871); assay: Functional cAMP formation (HTRF) in HEK-293 clonal cells expressing hGCGR, 0.1% bovine casein, without or with 1.0% human serum albumin; settings: hGCGR EC50, nM (SEM, n), cAMP, 37° C.
T1 construct: expressed in transfected cells
T1 sequence (P47871 26-477): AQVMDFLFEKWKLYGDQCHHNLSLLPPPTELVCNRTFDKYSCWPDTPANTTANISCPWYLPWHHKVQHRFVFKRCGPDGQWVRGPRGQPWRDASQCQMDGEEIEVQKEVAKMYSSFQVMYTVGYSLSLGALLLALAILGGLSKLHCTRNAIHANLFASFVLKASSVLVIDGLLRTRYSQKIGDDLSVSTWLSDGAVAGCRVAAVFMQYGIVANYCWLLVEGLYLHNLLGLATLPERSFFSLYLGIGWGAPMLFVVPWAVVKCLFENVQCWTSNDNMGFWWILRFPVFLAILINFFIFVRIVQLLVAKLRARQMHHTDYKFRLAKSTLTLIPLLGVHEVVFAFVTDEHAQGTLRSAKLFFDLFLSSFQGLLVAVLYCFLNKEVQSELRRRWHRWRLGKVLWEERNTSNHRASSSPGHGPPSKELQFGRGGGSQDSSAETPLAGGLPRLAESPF
In short: as §1

hGIPR = target: T2, hGIPR (Homo sapiens, UniProt P48546); assay: Functional cAMP formation (HTRF) in HEK-293 clonal cells expressing hGIPR, 0.1% bovine casein, without or with 1.0% human serum albumin; settings: for Emax: percent of maximal response to GIP(1-42)NH2; for EC50: hGIPR EC50, nM (SEM, n), cAMP, 37° C.
T2 construct: expressed in transfected cells
T2 sequence (P48546 22-466): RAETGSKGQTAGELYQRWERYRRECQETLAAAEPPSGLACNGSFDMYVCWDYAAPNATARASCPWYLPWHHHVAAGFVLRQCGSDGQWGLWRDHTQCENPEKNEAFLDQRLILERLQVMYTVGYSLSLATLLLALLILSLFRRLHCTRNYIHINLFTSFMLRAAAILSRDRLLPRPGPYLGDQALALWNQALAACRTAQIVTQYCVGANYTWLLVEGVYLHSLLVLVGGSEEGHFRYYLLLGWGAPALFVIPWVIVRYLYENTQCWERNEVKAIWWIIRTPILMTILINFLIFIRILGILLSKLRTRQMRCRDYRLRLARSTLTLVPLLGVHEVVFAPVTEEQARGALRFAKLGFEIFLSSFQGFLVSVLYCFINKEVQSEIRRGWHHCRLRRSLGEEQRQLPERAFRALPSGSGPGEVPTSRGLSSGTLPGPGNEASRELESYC
In short: as §1

[1] = HEK293, read-out: hGLP-1R Emax, % ± SEM, cAMP, 37° C., 0.1% bovine casein and 1.0% human serum albumin
[2] = 0.1% bovine casein (no human serum albumin), geometric mean
[3] = 0.1% bovine casein and 1.0% human serum albumin, geometric mean (SEM, n)
[4] = HEK293, read-out: hGIPR Emax, % ± SEM, cAMP, 37° C., 0.1% bovine casein and 1.0% human serum albumin

`CC[C@H](C)[C@H](NC(=O)[C@H](CCCN)NC(=O)[C@H](CC(=O)O)NC(=O)[C@H](CC(C)C)NC(=O)[C@](C)(CC(C)C)NC(=O)[C@@H](NC(=O)C(C)(C)NC(=O)[C@H](Cc1ccncc1)NC(=O)[C@H](CC(=O)O)NC(=O)[C@H](CO)NC(=O)[C@@H](NC(=O)[C@](C)(Cc1ccccc1F)NC(=O)[C@@H](NC(=O)CNC(=O)[C@H](CCC(=O)O)NC(=O)C(C)(C)NC(=O)[C@@H](N)Cc1ccc(O)cc1)[C@@H](C)O)[C@@H](C)O)[C@@H](C)CC)C(=O)N[C@@H](C)C(=O)N[C@@H](CCC(N)=O)C(=O)NC(C)(C)C(=O)N[C@@H](CCCN)C(=O)N[C@@H](Cc1ccccc1)C(=O)N[C@H](C(=O)N[C@@H](CCCCNC(=O)COCCOCCNC(=O)COCCOCCNC(=O)CC[C@H](NC(=O)CCCCCCCCCOc1ccc(C(=O)O)cc1)C(=O)O)C(=O)N[C@@](C)(Cc1ccc(O)cc1)C(=O)N[C@@H](CC(C)C)C(=O)N[C@H](C(=O)N[C@@H](CCCCNC(=O)COCCOCCNC(=O)COCCOCCNC(=O)CC[C@H](NC(=O)CCCCCCCCCOc1ccc(C(=O)O)cc1)C(=O)O)C(=O)NCC(=O)NCC(=O)N1CCC[C@H]1C(=O)N[C@@H](CO)C(=O)N[C@@H](CO)C(=O)NCC(=O)N[C@@H](C)C(=O)N1CCC[C@H]1C(=O)N1CCC[C@H]1C(=O)N1CCC[C@H]1C(=O)N[C@@H](CO)C(N)=O)[C@@H](C)CC)[C@@H](C)CC` [Example 354] (H-Y[Aib]EGT[αMePhe(2-F)]TSD[4Pal][Aib]I[αMeL]LD[Orn]IAQ[Aib][Orn]FIK([AEEA-AEEA-γGlu-Decanoyl(10-(4-HOOC-PhO))])[αMeY]LIK([AEEA-AEEA-γGlu-Decanoyl(10-(4-HOOC-PhO))])GGPSSGAPPPS-NH2) gave an Emax (hGLP-1R; [1]) of 95.9%, an EC50 (hGLP-1R; [2]) of 0.505 nM and an EC50 (hGCGR; [2]) greater than 9950 nM. It also gave an EC50 (hGCGR; [3]) greater than 9950 nM, an Emax (hGIPR; [4]) of 67.5% and an Emax (hGIPR; HEK293, read-out: hGIPR Emax, % ± SEM, cAMP, 37° C., 0.1% bovine casein, arithmetic mean) of 95.4%. It also gave an EC50 (hGIPR; [2]) of 0.0249 nM.
`CC[C@H](C)[C@H](NC(=O)[C@H](CCCN)NC(=O)[C@H](CC(=O)O)NC(=O)[C@H](CC(C)C)NC(=O)[C@](C)(CC(C)C)NC(=O)[C@@H](NC(=O)C(C)(C)NC(=O)[C@H](Cc1ccc(O)cc1)NC(=O)[C@H](CC(=O)O)NC(=O)[C@H](CO)NC(=O)[C@@H](NC(=O)[C@](C)(Cc1ccccc1F)NC(=O)[C@@H](NC(=O)CNC(=O)[C@H](CCC(=O)O)NC(=O)C(C)(C)NC(=O)[C@@H](N)Cc1ccc(O)cc1)[C@@H](C)O)[C@@H](C)O)[C@@H](C)CC)C(=O)N[C@@H](C)C(=O)N[C@@H](CCC(N)=O)C(=O)NC(C)(C)C(=O)N[C@@H](CCCN)C(=O)N[C@@H](Cc1ccccc1)C(=O)N[C@H](C(=O)N[C@@H](CCCCNC(=O)COCCOCCNC(=O)COCCOCCNC(=O)CC[C@H](NC(=O)CCCCCCCCCOc1ccc(C(=O)O)cc1)C(=O)O)C(=O)N[C@@](C)(Cc1ccc(O)cc1)C(=O)N[C@@H](CC(C)C)C(=O)N[C@H](C(=O)N[C@@H](CCCCNC(=O)COCCOCCNC(=O)COCCOCCNC(=O)CC[C@H](NC(=O)CCCCCCCCCOc1ccc(C(=O)O)cc1)C(=O)O)C(=O)NCC(=O)NCC(=O)N1CCC[C@H]1C(=O)N[C@@H](CO)C(=O)N[C@@H](CO)C(=O)NCC(=O)N[C@@H](C)C(=O)N1CCC[C@H]1C(=O)N1CCC[C@H]1C(=O)N1CCC[C@H]1C(=O)N[C@@H](CO)C(N)=O)[C@@H](C)CC)[C@@H](C)CC` [Example 355] was tested, and the Emax (hGLP-1R; [1]) was 109%, the Emax (hGLP-1R; HEK293, read-out: hGLP-1R Emax, % ± SEM, cAMP, 37° C., 0.1% bovine casein, arithmetic mean) was 105% and the EC50 (hGLP-1R; [2]) was 0.574 nM. For the same molecule, the EC50 (hGLP-1R; [3]) was 11.3 nM, the EC50 (hGCGR; [2]) was greater than 9950 nM and the EC50 (hGCGR; [3]) was greater than 9950 nM. It also gave an Emax (hGIPR; [4]) of 86%, an EC50 (hGIPR; [2]) of 0.0365 nM and an EC50 (hGIPR; [3]) of 1.81 nM.
